These results are taken from patent publication US20240018145A1, “[…]-DEPENDENT EN[…] TREATING OR […]” (priority 2020, published 2024).

Molecules are shown by their SMILES.

For the first assay, the system named is FLU A (PR/8/34). In words: Flu A Neuraminidase Antiviral Assay. It is filed as cell-based.
Conditions: not given
Regarding `CN1C(=O)c2c(O)c(=O)ccn2N2C(c3ccccc3)C3CCC(C3)C12` (single isomer, unassigned) [Compound 9C, 4-hydroxy-6-methyl-11-phenyl-6a,7,8,9,10,11-hexahydro-3H-7,10-methanopyrido[1′,2′:1,6][1,2,4]triazino[2,3-a]azepine-3,5(6H)-dione], the 50% effective concentration (EC50) (commonly the concentration that produces a half-maximal response) is above 8100 nM.
On the same count and under the same terms, next, `Cc1ccccc1C1C(CC2CC2(F)F)CCC2N(C)C(=O)c3c(O)c(=O)ccn3N12` (single isomer, unassigned) [Compound 88A]: above 810 nM; `CN1C(=O)c2c(O)c(=O)ccn2N2C1CCCC2(C)c1ccncc1` (single isomer, unassigned) [Compound 31B, 7-hydroxy-1,5-dimethyl-1-(pyridin-4-yl)-1,2,3,4,4a,5-hexahydrodipyrido[1,2-b:2′,1′-f][1,2,4]triazine-6,8-dione]: above 8100 nM; `CN1C(=O)c2c(O)c(=O)ccn2N2C(c3ccccc3)C(CC3CC3(F)F)CCC12` (single isomer, unassigned) [Compound 114D, 2-((2,2-difluorocyclopropyl)methyl)-7-hydroxy-5-methyl-1-phenyl-1,2,3,4,4a,5-hexahydrodipyrido[1,2-b:2′,1′-f][1,2,4]triazine-6,8-dione]: 2.3 nM.
The same measure, in the same setting: the result for `CC1CC2N(C)C(=O)c3c(O)c(=O)ccn3N2C(C)(c2ccccc2)C1` (single isomer, unassigned) [Compound 43D, 7-hydroxy-1,3,5-trimethyl-1-phenyl-1,2,3,4,4a,5-hexahydrodipyrido[1,2-b:2′,1′-f][1,2,4]triazine-6,8-dione] reads 7.8 nM.
On the same count and under the same terms, the result for `CC1CC(c2ccccc2)N2C(C1)N(C)C(=O)c1c(O)c(=O)ccn12` (single isomer, unassigned) [Compound 6B, 7-hydroxy-3,5-dimethyl-1-phenyl-1,2,3,4,4a,5-hexahydrodipyrido[1,2-b:2′,1′-f][1,2,4]triazine-6,8-dione] reads 7760 nM; that for `CN1C(=O)c2c(O)c(=O)ccn2N2C(c3cc(F)ccc3OC(F)F)CCCC12` (single isomer, unassigned) [Compound 17B, 1-(2-(difluoromethoxy)-5-fluorophenyl)-7-hydroxy-5-methyl-1,2,3,4,4a,5-hexahydrodipyrido[1,2-b:2′,1′-f][1,2,4]triazine-6,8-dione], 103 nM; that for `CC1CCC2N(C)C(=O)c3c(O)c(=O)ccn3N2C1(C)c1ccccc1` (single isomer, unassigned) [Compound 29A, 7-hydroxy-1,2,5-trimethyl-1-phenyl-1,2,3,4,4a,5-hexahydrodipyrido[1,2-b:2′,1′-f][1,2,4]triazine-6,8-dione], 1860 nM.
With `CN1C(=O)c2c(O)c(=O)ccn2N2C1CCCC2(C)c1cccc(F)c1` (single isomer, unassigned) [Compound 25A, 1-(3-fluorophenyl)-7-hydroxy-1,5-dimethyl-1,2,3,4,4a,5-hexahydrodipyrido[1,2-b:2′,1′-f][1,2,4]triazine-6,8-dione], the EC50 came to 3.5 nM.
Still for that read-out and setting: next, `CN1C(=O)c2c(O)c(=O)ccn2N2C1CCCC21CCc2ccccc21` (single isomer, unassigned) [Compound 21C, 7-hydroxy-5-methyl-2′,3,3′,4,4a,5-hexahydro-2H-spiro[dipyrido[1,2-b:2′,1′-f][1,2,4]triazine-1,1′-indene]-6,8-dione]: 1600 nM; `CN1C(=O)c2c(O)c(=O)ccn2N2C1CCCC2(C)c1ncc(F)cc1F` (single isomer, unassigned) [Compound 46B, 1-(3,5-difluoropyridin-2-yl)-7-hydroxy-1,5-dimethyl-1,2,3,4,4a,5-hexahydrodipyrido[1,2-b:2′,1′-f][1,2,4]triazine-6,8-dione]: above 8100 nM; `CCN1C(=O)c2c(O)c(=O)ccn2N2C(c3ccccc3F)C(CCC(F)F)CCC12` (single isomer, unassigned) [Compound 101B, 2-(3,3-difluoropropyl)-5-ethyl-1-(2-fluorophenyl)-7-hydroxy-1,2,3,4,4a,5-hexahydrodipyrido[1,2-b:2′,1′-f][1,2,4]triazine-6,8-dione]: 5.6 nM.
Same read-out and setting: the result for `CN1C(=O)c2c(O)c(=O)ccn2N2C1CCCC2(C)c1ccccc1Cl` (single isomer, unassigned) [Compound 20B, 1-(2-chlorophenyl)-7-hydroxy-1,5-dimethyl-1,2,3,4,4a,5-hexahydrodipyrido[1,2-b:2′,1′-f][1,2,4]triazine-6,8-dione] reads 4.6 nM; that for `CN1C(=O)c2c(O)c(=O)ccn2N2C(c3ccccc3)CCCC12` (single isomer, unassigned) [Compound 1A, 7-hydroxy-5-methyl-1-phenyl-1,2,3,4,4a,5-hexahydrodipyrido[1,2-b:2′,1′-f][1,2,4]triazine-6,8-dione], above 8100 nM.
Still for that read-out and setting: the result for `CN1C(=O)c2c(O)c(=O)ccn2N2C(c3ccccc3)C3CCCC(C3)C12` (single isomer, unassigned) [Compound 11B, 4-hydroxy-6-methyl-12-phenyl-6,6a,7,8,9,10,11,12-octahydro-7,11-methanopyrido[1′,2′:1,6][1,2,4]triazino[2,3-a]azocine-3,5-dione] reads above 8100 nM; that for `CN1C(=O)c2c(O)c(=O)ccn2N2C1CCC1(CCC(F)(F)C1)C2c1ccccc1` (single isomer, unassigned) [Compound 68D, 3,3-difluoro-7′-hydroxy-5′-methyl-1′-phenyl-3′,4′,4a′,5′-tetrahydro-1′H-spiro[cyclopentane-1,2′-dipyrido[1,2-b:2′,1′-f][1,2,4]triazine]-6′,8′-dione], 11.8 nM; that for `Cc1ccccc1C1C(CC2CC2(F)F)CCC2N(C)C(=O)c3c(O)c(=O)ccn3N12` (single isomer, unassigned) [Compound 88B], above 810 nM.
The molecule `Cc1ccnc(C2(C)CCCC3N(CC(F)(F)F)C(=O)c4c(O)c(=O)ccn4N32)c1` (single isomer, unassigned) [Compound 50A, 7-hydroxy-1-methyl-1-(4-methylpyridin-2-yl)-5-(2,2,2-trifluoroethyl)-1,2,3,4,4a,5-hexahydrodipyrido[1,2-b:2′,1′-f][1,2,4]triazine-6,8-dione] displayed an EC50 above 8100 nM.
Still for that read-out and setting: next, `CN1C(=O)c2c(O)c(=O)ccn2N2C(c3ccccc3)C(CCC3CC3)CCC12` (single isomer, unassigned) [Compound 115A, 2-(2-cyclopropylethyl)-7-hydroxy-5-methyl-1-phenyl-1,2,3,4,4a,5-hexahydrodipyrido[1,2-b:2′,1′-f][1,2,4]triazine-6,8-dione]: above 8100 nM.

The same assay, now with this note: MDCK, 48 h.
`CN1C(=O)c2c(O)c(=O)ccn2N2[C@H](c3ccccc3)[C@@H](OCCCCC#N)CC[C@@H]12` [Compound 154, 5-(((1R,2S,4aS)-7-hydroxy-5-methyl-6,8-dioxo-1-phenyl-1,2,3,4,4a,5,6,8-octahydrodipyrido[1,2-b:2′,1′-f][1,2,4]triazin-2-yl)oxy)pentanenitrile]: the EC50 was above 810 nM.
The same measure, in the same setting: the result for `CC(=O)N[C@H]1CC[C@@H](c2ccccc2)N2[C@@H]1N(C)C(=O)c1c(O)c(=O)ccn12` [Compound 144, N-((1S,4S,4aS)-7-hydroxy-5-methyl-6,8-dioxo-1-phenyl-1,2,3,4,4a,5,6,8-octahydrodipyrido[1,2-b:2′,1′-f][1,2,4]triazin-4-yl)acetamide] reads above 810 nM.
